Assay results taken from patent publication US20130210846A1, “USE OF NOVEL PAN-CDK INHIBITORS FOR TREATING TUMORS” (BAYER INTELLECTUAL PROPERTY GMBH, priority 2010, published 2013).

Tests used:
HeLa-MaTu-ADR = experiment: Proliferation assay HeLa-MaTu-ADR; assay type: cell-based, human; conditions: cervix carcinoma, 4 days, crystal violet
Experimental: (§1) Cultivated human tumor cells (originally obtained from ATCC, HeLa-MaTu and HeLa-MaTu-ADR, originally obtained from Epo GmbH, Berlin, Germany) were plated at a density of 1000 to 5000 cells/measuring point, depending on the growth rate of the cell line, in a 96-well multititer plate in 200 μl of growth medium (DMEM/HAMS F12, 2 mM L-glutamine, 10% fetal calf serum). After 24 hours the cells of one plate (zero-point plate) were stained with crystal violet (see below), whereas the medium of the other plates was replaced with fresh culture medium (200 μl), to which the test substances had been added at various concentrations (0 μM, and in the range 0.01-30 μM; the final concentration of the solvent dimethyl sulfoxide was 0.5%). The cells were incubated for 4 days in the presence of the test substances. Cellular proliferation was determined by staining the cells with crystal violet: the cells were fixed by adding 20 μl/measuring point of an 11% glutaraldehyde solution for 15 min at room temperature. After washing the fixed cells with water three times, the plates were dried at room temperature. The cells were stained by adding 100 μl/measuring point of a 0.1% crystal violet solution (pH adjusted to pH3 by adding acetic acid). After washing the stained cells with water three times, the plates were dried at room temperature. The dye was dissolved by adding 100 μl/measuring point of a 10% acetic acid solution. The extinction was determined photometrically at a wavelength of 595 nm. The percentage change in cell growth was calculated by standardization of the measured values to the extinction values of the zero-point plate (=0%) and the extinction of the untreated (0 μM) cells (=100%). The measured data were standardized to 0% inhibition (cell proliferation without inhibitor) and 100% inhibition (zero-point plate). The IC50 values were determined by means of a 4-parameter fit using the company's own software.
(§2) The substances were examined in the following cell lines which, in an exemplary manner, represent the stated indications: […]

Caco-2 = experiment: Proliferation assay Caco-2; assay type: cell-based, human; conditions: Caco-2, colon/rectum carcinoma, 4 days, crystal violet
Experimental: as §1, §2

CDK2/CycE = biological target: T1, CDK2/CycE (Homo sapiens, UniProt P24941); experiment: CDK2/CycE kinase assay (Assay 2); assay type: biochemical; conditions: 0.5 μM ATP, histon IIIS, 10 min 22° C.; read-out: CDK2/CycE (Assay 2) Concentration for half-maximal inhibition of the enzyme activity, IC50
T1 construct: purchased ProQinase GmbH, Freiburg, Germany; host or cells: baculovirus-infected insect cells (Sf9)
Experimental: Recombinant CDK2 and CycE-GST fusion proteins, purified from baculovirus-infected insect cells (Sf9), were purchased from ProQinase GmbH, Freiburg, Germany. Histon HIS, used as kinase substrate, was purchased from Sigma.
The reaction was stopped by adding EDTA solution (250 mM, pH 8.0, 15 μl/measuring point).
From each reaction mixture, 15 μl was applied to P30 filter strips (from Wallac), and unincorporated ^33P-ATP was removed by washing the filter strips three times, for 10 min each time, in 0.5% phosphoric acid. After drying the filter strips for 1 hour at 70° C., the filter strips were covered with scintillator strips (MeltiLex™ A, from Wallac) and stoved for 1 hour at 90° C. The amount of incorporated ^33P (substrate phosphorylation) was determined by scintillation measurement in a gamma-radiation measuring instrument (Wallac). […] The IC50 values were determined by means of a 4-parameter fit using the company's own software.

CDK1/CycB = biological target: T2, CDK1/CycB (Homo sapiens, UniProt P06493); experiment: CDK1/CycB kinase assay (Assay 1); assay type: biochemical; conditions: 0.5 μM ATP, histon IIIS, 10 min 22° C.; read-out: CDK1/CycB (Assay 1) Concentration for half-maximal inhibition of the enzyme activity, IC50
T2 construct: purchased ProQinase GmbH, Freiburg, Germany; host or cells: baculovirus-infected insect cells (Sf9)
Experimental: Recombinant CDK1 and CycB-GST fusion proteins, purified from baculovirus-infected insect cells (Sf9), were purchased from ProQinase GmbH, Freiburg, Germany. The histon HIS used as kinase substrate is commercially available from Sigma.
CDK1/CycB (200 ng/measuring point) was incubated for 10 min at 22° C. in the presence of various concentrations of test substances (0 μM, and within the range 0.01-100 μM) in assay buffer [50 mM Tris/HCl pH8.0, 10 mM MgCl2, 0.1 mM Na ortho-vanadate, 1.0 mM dithiothreitol, 0.5 μM adenosine triphosphate (ATP), 10 μg/measuring point histon IIIS, 0.2 μCi/measuring point ^33P-gamma ATP, 0.05% NP40, 1.25% dimethyl sulfoxide]. The reaction was stopped by adding EDTA solution (250 mM, pH 8.0, 15 μl/measuring point).
(§3) From each reaction mixture, 15 μl were applied to P30 filter strips (from Wallac), and unincorporated ^33P-ATP was removed by washing the filter strips three times, for 10 min each time, in 0.5% phosphoric acid. After drying the filter strips for 1 hour at 70° C., the filter strips were covered with scintillator strips (MeltiLex™ A, from Wallac) and stoved for 1 hour at 90° C. The amount of incorporated ^33P (substrate phosphorylation) was determined by scintillation measurement in a gamma-radiation measuring instrument (Wallac). The measured data were standardized to 0% inhibition (enzyme reaction without inhibitor) and 100% inhibition (all assay components except enzyme). The IC50 values were determined by means of a 4-parameter fit using the company's own software.

NCI-H460 = experiment: Proliferation assay NCI-H460; assay type: cell-based, human; conditions: NCI-H460, non-small-cell bronchial carcinoma, 4 days, crystal violet
Experimental: as §1, §2

HeLa-MaTu = experiment: Proliferation assay HeLa-MaTu; assay type: cell-based, human; conditions: cervix carcinoma, 4 days, crystal violet
Experimental: as §1, §2

[1] = biological target: T3, VEGF receptor tyrosine kinase-2 (VEGF-R2) (Homo sapiens, UniProt P35968); experiment: VEGF receptor-2 kinase assay (Assay 3); assay type: biochemical; conditions: 8 μM ATP, poly-(Glu4Tyr), 10 min 22° C.; read-out: VEGF-R2 (Assay 3) Concentration for half-maximal inhibition of the enzyme activity, IC50
T3 construct: GST; made in house; host or cells: baculovirus-infected insect cells (Sf9)
Experimental: Recombinant VEGF receptor tyrosine kinase-2 was purified as GST fusion protein from baculovirus-infected insect cells (Sf9). Poly-(Glu4Tyr), used as kinase substrate, was purchased from Sigma.
VEGF receptor tyrosine kinase (90 ng/measuring point) was incubated for 10 min at 22° C. in the presence of various concentrations of test substances (0 μM, and within the range 0.001-30 μM) in 30 μl assay buffer [40 mM Tris/HCl pH5.5, 10 mM MgCl2, 1 mM MnCl2, 3 μM Na ortho-vanadate, 1.0 mM dithiothreitol, 8 μM adenosine triphosphate (ATP), 0.96 μg/measuring point poly-(Glu4Tyr), 0.2 μCi/measuring point ^33P-gamma ATP, 1.4% dimethyl sulfoxide]. The reaction was stopped by adding EDTA solution (250 mM, pH 8.0, 15 μl/measuring point).
as §3, with “μl was” for “μl were”

MCF7 = experiment: Proliferation assay MCF7; assay type: cell-based, human; conditions: MCF7, estrogen receptor-positive mamma carcinoma, 4 days, crystal violet
Experimental: as §1, §2

SW480 = experiment: Proliferation assay SW480; assay type: cell-based; conditions: Homo sapiens, 96 h; SW480, colon/rectum carcinoma; 4 days, crystal violet
Experimental: as §1, §2

HCT116 = experiment: Proliferation assay HCT116; assay type: cell-based; conditions: Homo sapiens, HCT-116, 96 h; HCT116, colon/rectum carcinoma; 4 days, crystal violet
Experimental: as §1, §2

HeLa = experiment: Proliferation assay HeLa; assay type: cell-based; conditions: Homo sapiens, 96 h, cervix carcinoma, 4 days, crystal violet
Experimental: as §1, §2

DU145 = experiment: Proliferation assay DU145; assay type: cell-based, human; conditions: DU145, prostate carcinoma, 4 days, crystal violet
Experimental: as §1, §2

T2 sequence (P06493 whole entry): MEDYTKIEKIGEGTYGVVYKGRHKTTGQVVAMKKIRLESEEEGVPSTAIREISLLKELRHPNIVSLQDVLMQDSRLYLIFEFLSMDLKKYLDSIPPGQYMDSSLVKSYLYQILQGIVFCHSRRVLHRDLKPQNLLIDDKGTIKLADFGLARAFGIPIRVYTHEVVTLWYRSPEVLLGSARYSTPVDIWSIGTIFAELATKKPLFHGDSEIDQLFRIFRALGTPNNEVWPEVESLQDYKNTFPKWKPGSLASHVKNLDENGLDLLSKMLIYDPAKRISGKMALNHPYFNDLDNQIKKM
T2 sequence (P14635 whole entry partner): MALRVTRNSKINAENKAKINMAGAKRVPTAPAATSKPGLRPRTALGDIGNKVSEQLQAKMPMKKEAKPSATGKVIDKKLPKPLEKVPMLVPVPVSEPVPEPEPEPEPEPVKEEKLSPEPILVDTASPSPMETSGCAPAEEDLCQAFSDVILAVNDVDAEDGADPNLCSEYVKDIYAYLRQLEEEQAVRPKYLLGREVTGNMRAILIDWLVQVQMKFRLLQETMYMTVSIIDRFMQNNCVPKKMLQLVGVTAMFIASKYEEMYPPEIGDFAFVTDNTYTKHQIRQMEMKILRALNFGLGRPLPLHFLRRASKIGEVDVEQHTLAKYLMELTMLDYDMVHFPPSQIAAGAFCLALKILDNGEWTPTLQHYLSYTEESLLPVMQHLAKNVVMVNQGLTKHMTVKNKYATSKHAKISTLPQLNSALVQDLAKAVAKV
T3 sequence (P35968 20-1356, species assumed): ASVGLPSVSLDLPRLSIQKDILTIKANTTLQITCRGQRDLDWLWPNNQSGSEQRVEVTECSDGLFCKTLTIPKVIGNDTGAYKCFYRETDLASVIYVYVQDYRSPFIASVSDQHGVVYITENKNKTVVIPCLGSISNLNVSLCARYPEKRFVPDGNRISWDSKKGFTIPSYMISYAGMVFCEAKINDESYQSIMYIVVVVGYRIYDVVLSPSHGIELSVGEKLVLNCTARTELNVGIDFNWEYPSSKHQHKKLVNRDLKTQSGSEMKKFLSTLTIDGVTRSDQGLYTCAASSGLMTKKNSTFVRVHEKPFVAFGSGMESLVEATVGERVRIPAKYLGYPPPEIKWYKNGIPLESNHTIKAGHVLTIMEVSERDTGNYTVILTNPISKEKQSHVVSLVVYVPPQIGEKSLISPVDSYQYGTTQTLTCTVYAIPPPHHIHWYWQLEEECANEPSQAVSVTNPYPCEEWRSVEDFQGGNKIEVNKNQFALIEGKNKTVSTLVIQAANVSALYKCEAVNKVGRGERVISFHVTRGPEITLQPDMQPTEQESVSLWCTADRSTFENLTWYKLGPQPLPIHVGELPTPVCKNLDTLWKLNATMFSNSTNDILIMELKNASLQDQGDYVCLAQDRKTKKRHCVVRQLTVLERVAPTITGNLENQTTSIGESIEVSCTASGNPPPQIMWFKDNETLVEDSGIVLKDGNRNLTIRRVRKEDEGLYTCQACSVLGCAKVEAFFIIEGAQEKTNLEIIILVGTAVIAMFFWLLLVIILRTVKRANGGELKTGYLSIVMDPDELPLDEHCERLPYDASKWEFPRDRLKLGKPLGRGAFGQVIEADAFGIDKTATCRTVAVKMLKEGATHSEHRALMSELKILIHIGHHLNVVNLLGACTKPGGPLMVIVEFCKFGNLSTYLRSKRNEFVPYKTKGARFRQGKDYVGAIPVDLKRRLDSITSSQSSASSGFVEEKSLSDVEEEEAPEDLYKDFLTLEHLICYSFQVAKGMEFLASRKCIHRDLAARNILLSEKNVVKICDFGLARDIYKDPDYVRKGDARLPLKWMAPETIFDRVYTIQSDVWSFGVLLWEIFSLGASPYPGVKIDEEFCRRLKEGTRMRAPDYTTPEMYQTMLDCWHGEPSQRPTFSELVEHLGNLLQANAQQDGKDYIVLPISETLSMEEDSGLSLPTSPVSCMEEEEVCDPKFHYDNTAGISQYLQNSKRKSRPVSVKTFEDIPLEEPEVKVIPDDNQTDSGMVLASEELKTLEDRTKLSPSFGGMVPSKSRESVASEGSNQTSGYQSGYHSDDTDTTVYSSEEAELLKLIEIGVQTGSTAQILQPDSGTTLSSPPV

SMILES	IC50 (HeLa-MaTu-ADR; Homo sapiens, 96 h) [nM]	IC50 (Caco-2; Homo sapiens, Caco-2, 96 h) [nM]	IC50 (CDK2/CycE) [nM]	IC50 (CDK1/CycB) [nM]	IC50 (NCI-H460; Homo sapiens, NCI-H460, 96 h) [nM]	IC50 (HeLa-MaTu; Homo sapiens, 96 h) [nM]	IC50 [1] [nM]	IC50 (MCF7; Homo sapiens, MCF7, 96 h) [nM]	IC50 (SW480) [nM]	IC50 (HCT116) [nM]	IC50 (HeLa) [nM]	IC50 (DU145) [nM]	IC50 (HeLa-MaTu-ADR) [nM]	IC50 (Caco-2) [nM]	IC50 (NCI-H460) [nM]	IC50 (HeLa-MaTu) [nM]	IC50 (MCF7) [nM]	IC50 (DU145; Homo sapiens, DU-145, 96 h) [nM]
C[C@@H](O)[C@@H](C)Oc1nc(Nc2ccc(S(C)(=N)=O)cc2)ncc1C(F)(F)F (single isomer, unassigned) [Example 2-SI-1]			6	5		12	84											
C[C@@H](Nc1nc(Nc2ccc(S(=N)(=O)C3CC3)cc2)ncc1C(F)(F)F)C(C)(C)O (mixture of isomers) [Example 5-SI-2, (RS)—S-Cyclopropyl-S-(4-{[4-{[(R)-2-hydroxy-1,2-dimethylpropyl]amino}-5-(trifluoromethyl)-pyrimidin-2-yl]amino}phenyl)sulfoximide]			8	9			82			28	50	26	24	42	33	10	34	
C[C@@H](Oc1nc(Nc2ccc(S(C)(=N)=O)cc2)ncc1C(F)(F)F)C(C)(C)O (mixture of isomers) [Example 3, (RS)—S-(4-{[4-{[(R)-2-Hydroxy-1,2-dimethylpropyl]oxy}-5-(trifluoromethyl)pyrimidin-2-yl]-amino}phenyl)-S-methylsulfoximide]	63	98	10	13	113	70		70										76
C[C@@H](Nc1nc(Nc2ccc(S(=N)(=O)C3CC3)cc2)ncc1C(F)(F)F)C(C)(C)O (mixture of isomers) [Example 5-SI-1, (RS)—S-Cyclopropyl-S-(4-{[4-{[(R)-2-hydroxy-1,2-dimethylpropyl]amino}-5-(trifluoromethyl)-pyrimidin-2-yl]amino}phenyl)sulfoximide]			8	25			70	33				107	63	112	70	22		

Continued, values first:

IC50 (HeLa-MaTu-ADR; Homo sapiens, 96 h) [nM]	IC50 (Caco-2; Homo sapiens, Caco-2, 96 h) [nM]	IC50 (CDK2/CycE) [nM]	IC50 (CDK1/CycB) [nM]	IC50 (NCI-H460; Homo sapiens, NCI-H460, 96 h) [nM]	IC50 (HeLa-MaTu; Homo sapiens, 96 h) [nM]	IC50 [1] [nM]	IC50 (MCF7; Homo sapiens, MCF7, 96 h) [nM]	IC50 (SW480) [nM]	IC50 (HCT116) [nM]	IC50 (HeLa) [nM]	IC50 (DU145) [nM]	IC50 (HeLa-MaTu-ADR) [nM]	IC50 (Caco-2) [nM]	IC50 (NCI-H460) [nM]	IC50 (HeLa-MaTu) [nM]	IC50 (MCF7) [nM]	IC50 (DU145; Homo sapiens, DU-145, 96 h) [nM]	SMILES
30	32	6	11	30	14	116	44											C[C@@H](O)[C@@H](C)Nc1nc(Nc2ccc(S(C)(=N)=O)cc2)ncc1C(F)(F)F (single isomer, unassigned) [Example 8-SI-1]
		5	4		20	158												C[C@@H](Nc1nc(Nc2ccc(S(C)(=N)=O)cc2)ncc1C(F)(F)F)C(C)(C)O (single isomer, unassigned) [Example 9-SI-1]
		5	7			136		45	17	33								CCS(=N)(=O)c1ccc(Nc2ncc(C(F)(F)F)c(N[C@H](C)C(C)(C)O)n2)cc1 (single isomer, unassigned) [Example 7-SI-2]
18		5	5		10	71			24	32			26	24		26	197	CCS(=N)(=O)c1ccc(Nc2ncc(C(F)(F)F)c(N[C@H](C)[C@@H](C)O)n2)cc1 (mixture of isomers) [Example 6-SI-2, (RS)—S-Ethyl-S-(4-{[4-{[(1R,2R)-2-hydroxy-1-methylpropyl]amino}-5-(trifluoromethyl)-pyrimidin-2-yl]amino}phenyl)sulfoximide]
		4	3			81		31	17	25								C[C@@H](O)[C@@H](C)Nc1nc(Nc2ccc(S(C)(=N)=O)cc2)ncc1C(F)(F)F (single isomer, unassigned) [Example 8-SI-2]
